Article PMC9136613 (Acta Pharmaceutica Sinica. B, 2022)

Biological target: T1, CCT4 (Homo sapiens, UniProt P50991)
T1 sequence (P50991 2-539): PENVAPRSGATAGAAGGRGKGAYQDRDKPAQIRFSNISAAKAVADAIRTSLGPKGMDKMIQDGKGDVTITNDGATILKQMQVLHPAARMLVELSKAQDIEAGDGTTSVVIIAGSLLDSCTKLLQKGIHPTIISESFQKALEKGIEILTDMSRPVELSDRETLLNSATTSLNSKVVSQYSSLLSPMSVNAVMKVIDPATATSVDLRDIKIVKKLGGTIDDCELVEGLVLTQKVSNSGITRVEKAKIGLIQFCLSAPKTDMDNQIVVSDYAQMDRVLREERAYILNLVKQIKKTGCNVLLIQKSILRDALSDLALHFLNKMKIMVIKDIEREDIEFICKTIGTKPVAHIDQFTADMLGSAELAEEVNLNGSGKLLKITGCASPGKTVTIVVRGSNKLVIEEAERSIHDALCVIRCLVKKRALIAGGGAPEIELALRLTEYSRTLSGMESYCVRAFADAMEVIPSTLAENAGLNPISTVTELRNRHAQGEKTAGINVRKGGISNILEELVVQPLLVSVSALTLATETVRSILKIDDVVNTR
Assay: SPR on immobilized recombinant CCT4
Assay type: binding

Substance: anticarin-β
- Kd: ~2200 nM
